# Data: US20260315446A1, “ANTIFUNGAL COMPOUNDS AND USES THEREOF” (priority 2023, published 2026)
# “Also recorded” adds a separate entry of the source. Like-named read-outs stand apart in the source and are kept apart here.
# What was measured:
# [1] = Pharmacokinetics in whole blood; assay type: in vivo, mouse (CD-1); conditions: for Cmax / Tmax / AUC / CL/F / half-life: mouse, in vivo, ip, 40 mg/kg, 40 mg/kg i.p. single dose, whole blood; for AUC: read-out: AUC (area under the curve); for CL/F: read-out: CI/F (clearance as Dose/AUCINF) (converted)
# Experimental: For the lead compound JH-FK-08, the mechanism of action resulting in antifungal activity was tested for conservation of calcineurin inhibition. To probe the JH-FK-08 mechanism of action, MICs of JH-FK-08 were determined with fungal mutants that lack the drug-binding protein FKBP12 or have mutations in the binding site on calcineurin that prevent FKBP12-FK506 binding and inhibition. […] Taken together, these findings support the hypothesis that JH-FK-08 requires FKBP12 for antifungal activity, and the target of the FKBP12-JH-FK-08 complex is calcineurin. The length of time that drugs are active in vivo is critical information relevant to drug development, and the time frame of drug activity can have a drastic impact on treatment regimen and efficacy. Therefore, the pharmacokinetic profiles of FK506 and JH-FK-08 were investigated. Three male and three female CD1 mice were administered a single dose of JH-FK-08 or FK506 at 40 mg/kg. Whole blood samples were taken over a 24-hour period, and the drug concentration remaining in the blood was determined. Pharmacokinetic parameters were calculated using a non-compartmental approach (see, Gabrielsson J, Weiner D. 2012. Methods Mot Biol Clifton NJ 929:377-389). […] When assessing specific pharmacokinetic measures, sex differences began to emerge.
# Male (n=3, avg. 28 g) and female (n=3, avg. 25 g) CD-1 mice were injected intraperitoneally with 40 mg/kg of either JH-FK-08 or FK506. The drug formulation was 10% Kolliphor/10% ethanol/80% PBS given as 10 μL/g body weight (i.e., 200 μL per 20 g mouse). Blood (~30 μL) was collected serially (“tail snip”) at 10, 20, and 45 min and 1.5, 3, 6, 12, and 24 h into vials containing […] of 75 mg/mL K2EDTA in water and immediately frozen until the day of liquid chromatography-tandem-mass spectroscopy (LC/MS/MS) analysis. Blood concentration/time data were utilized to calculate relevant PK parameters using the non-compartmental approach and extravascular administration model within WinNonlin (2.1) software.
# In a 0.5-mL polypropylene vial, 10 μL blood and 20 μL of acetonitrile fortified with 100 ng/mL FK520 (internal standard) were vigorously agitated in the FastPrep FP120 apparatus (Thermo-Savant) at speed four for 45 s. After centrifugation for 5 min at 16,000 rpm, 20 μL of supernatant was transferred to a polypropylene autosampler vial. LC/MS/MS (Agilent 1200 series HPLC and Sciex/Applied Biosystems API 5500 QTrap) was utilized to quantify JH-FK-08 and FK506 in mouse blood. Analytical column: Agilent Eclipse Plus (C18, 1.8 μm, 50×4.6 mm), at 40° C. Mobile phase: (A) 0.1% formic acid, 10 mM ammonium acetate, 2% acetonitrile in water, and (B) methanol. Elution gradient: 0-0.1 min 30%-98% B, 0.1-1.5 min 98% B, 1.5-1.6 min 98%-30% B, and 1.6-2.1 min 30% B. Run time: 5 min. Injection volume: 10 μL. Mass spectrometer parameters (voltages, gas flow, and temperature) were optimized by infusion of 100 ng/mL of analytes in the mobile phase at 10 μL/min using the Analyst 1.6.2 software tuning module. The MS/MS (m/z) transitions used for quantification were 864.4/846.5 (JH-FK-08), 821.4/768.5 (FK506), and 809.4/756.5 (FK520, internal standard). A set of calibrator samples in drug-free blood was prepared by adding appropriate amounts of pure analyte (JH-FK-08 or FK506) in the […] range. The calibration samples were analyzed alongside the experimental samples. The accuracy acceptance criterion was 85% for each but the lowest level (2.43 ng/mL, 80%, LLOQ). Analyst 1.6.2 software was used for data acquisition, integration of the chromatograms, calibration curve calculation, and quantification of the study samples.
# [2] = system: T follicular helper (Tfh) cells; assay: In vivo immunosuppression, T follicular helper cells (Example 3); conditions: 8 days
# Experimental: The in vivo immunosuppressive effect of JH-FK-08 was assessed by studying T follicular helper (Tfh) cell production in mice. Tfh cells play a role in protection against and response to fungal infections (see, Wong G K, et al., 1998. J Antibiot 51:487-491; Cruz M C, et al., 1999. Mol Cell Biol 19:4101-4112). For this study, immunocompetent C57BL/6 mice received 8 days of twice-daily dosing of vehicle, FK506 (2.5 mg/kg), or JH-FK-08 (20 or 40 mg/kg). Twenty-four hours after the first dose, mice were immunized with NP-OVA to induce an immune response. Cells were analyzed 7 days post immunization, and cell types were analyzed by flow cytometry (FIG. 15B).
# Cell surface staining of single cell suspensions was performed in staining buffer (PBS supplemented with 2 mM EDTA and 0.5% BSA). Anti-FcγR (93; Biolegend) was treated to block the Fe receptor before surface staining of primary cells isolated from lymph nodes of NP-OVA-immunized mice. Cells were stained with fixable viability dye (eBioscience) before surface staining to exclude dead cells from analysis. For the detection of intracellular cytokines, cells were additionally incubated with phorbol 12-myristate 13-acetate and ionomycin in the presence of GolgiStop (BD Biosciences) during the final 4 h of incubation. For intracellular staining, cells were fixed and permeabilized with Fixation/Permeabilization Buffer (eBioscience). Flow cytometric analysis was performed utilizing BD FACSCantoII or BD LSRFortessaX20 (BD Biosciences) and FlowJo software (BD Biosciences).
# Groups of five female C57BL/6 mice were treated twice daily for 8 days with vehicle, FK506 (2.5 mg/kg), JH-FK-08 (20 mg/kg), or JH-FK-08 (40 mg/kg) via i.p. injection. Twenty-four hours after the first dose, animals were immunized with NP-OVA (100 μg) in alum via subcutaneous injection. Seven days post immunization, mice were sacrificed, and draining lymph nodes were harvested for the analysis of Tfh cells and GC B cells by flow cytometry.
# [3] = females, read-out: t1/2 (3-12 h) (half-life) (converted)
# [4] = females, read-out: t1/2 (12-24 h) (half-life) (converted)
# [5] = males, read-out: t1/2 (3-12 h) (half-life) (converted)
# [6] = males, read-out: t1/2 (12-24 h) (half-life) (converted)
Compound,whole blood drug concentration over time versus FK506 ([1]; 40 mg/kg single dose),Cmax ([1]; females),Tmax ([1]; females),AUC ([1]; females),CL/F ([1]; females),"half-life [1, 3]","half-life [1, 4]",Cmax ([1]; males),Tmax ([1]; males),AUC ([1]; males),CL/F ([1]; males),"half-life [1, 5]","half-life [1, 6]",production of Tfh cells ([2]; JH-FK-08 20 mg/kg i.p. twice daily),production of Tfh cells ([2]; JH-FK-08 40 mg/kg i.p. twice daily),"production of Tfh cells ([2]; FK506 2.5 mg/kg i.p. twice daily, 2.5 mg/kg)"
CC[C@@H]1/C=C(\C)C[C@H](C)C[C@H](OC)[C@H]2O[C@@](O)(C(=O)C(=O)N3CCCC[C@H]3C(=O)O[C@H](/C(C)=C/C3CC[C@@H](O)[C@H](OC)C3)[C@H](C)[C@@H](O)C/C1=N/NC(=O)OC)[C@H](C)C[C@@H]2OC (stereo partly shown) [JH-FK-08],No significant differences across groups were observed in whole blood samples of drug concentration over time; also recorded: no statistically significant difference between groups,7500 ng/mL,2.5 h,31400 ng·h/mL,21.5 mL/min/kg,1.14 h,1.88 h,4070 ng/mL,1.25 h,15600 ng·h/mL,46.4 mL/min/kg,1.29 h,2.26 h,no significant effect on the percent of Tfh cells produced compared to vehicle,production of Tfh cells was reduced,
"C=CCC1C=C(C)CC(C)CC(OC)C2OC(O)(C(=O)C(=O)N3CCCCC3C(=O)OC(C(C)=CC3CCC(O)C(OC)C3)C(C)C(O)CC1=O)C(C)CC2OC (stereo not shown) [FK506, reference compound]",,5960 ng/mL,1.11 h,27100 ng·h/mL,25.9 mL/min/kg,1.35 h,3.59 h,4510 ng/mL,0.75 h,15200 ng·h/mL,49.4 mL/min/kg,1.48 h,2.46 h,,,significantly reduced; also recorded: significantly inhibits Tfh cell production at 1/16 of the dose of JH-FK-08
